# From PubChem BioAssay AID179 (DTP/NCI, 2004)
# The source made the active and inactive calls.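 The calls were made as follows: active = compounds giving half or more protection of infected cells from virus-caused growth loss, again on retest; inactive = the rest.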 Where a SMILES comes first, the peptide text is derived from it.
# Test system: CEM cells HIV-1 protection, formazan growth assay
# Assay: NCI AIDS Antiviral Assay
# Conditions: for IC50: measured here: growth of uninfected CEM cells
# Summary of the method: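 Protection of CEM cells against HIV-1 was scored from cell growth (soluble formazan) across five concentrations, with parallel uninfected cells. Lack of protection may reflect toxicity.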
Structure (SMILES),EC50 [µM],IC50 [µM],outcome
COc1ccc(NC(=S)NN=C(C)c2cccc(C(C)=NNC(=S)Nc3ccc(OC)cc3)n2)cc1,> 200,55,
O=Cc1ccc(-c2cccs2)s1,,,inactive
CCOc1ccc(C2OCCC(C)O2)cc1OC (centres undefined),> 200,> 200,
COc1cc2c(c(OC)c1OC)-c1oncc1CC2,166,282,
CC1C2CCC3C4CC=C5CC(N(C)C)CCC5(C)C4CCC32CN1C (centres undefined),> 200,41.7,
Cc1ccc(S(=O)(=O)/C(C#N)=C\N2CC(=O)NC2=S)cc1,> 200,> 200,
O=c1[nH]c(=O)n(C2CC(O)C(CO)O2)cc1Oc1ccccc1 (centres undefined),> 200,> 200,
CC1=NN(C(=O)CC(=O)Nc2ccccc2Cl)C(=O)C1N=Nc1ccc(S(=O)(=O)c2ccc(N=NC3C(=O)N(C(=O)CC(=O)Nc4ccccc4Cl)N=C3C)cc2)cc1 (centres undefined),> 100,> 100,
C[C@]12CC[C@H]3[C@@H](C[C@@H](O)[C@]45C[C@@H]4CC[C@]35C)[C@@H]1CC[C@@]21C=CC(=O)O1,> 200,95.5,
C=C1C(=O)O[C@H]2[C@H](OC(C)=O)[C@@H](C)CCC/C(C)=C/CC[C@@]3(C)O[C@@H]3C[C@@H]12,> 126,5.62,
C#CCCCCC#Cc1ccccc1C(=O)OC,> 151,28.8,
COc1ccc(CNC(=O)NCn2cc(-c3ccccc3)nn2)cc1,> 200,> 200,
Cc1cccc(CC(C)(C)C)c1NC(=O)C(=O)C(C(=O)c1ccc2ccccc2c1)C1OC(=O)c2ccccc21 (centres undefined),> 126,56.2,
CCCCc1c2c(nc3c1CCCC3O)CCCC2 (centres undefined),> 200,81.3,
Cn1c(NNc2ccccc2)cc(=O)[nH]c1=O,> 200,28.8,
CS(=O)CCN=Cc1ccc(N=Nc2ccc(O)cc2)cc1 (centres undefined),> 200,1.78,
Cc1cc(N(CCC#N)CCC#N)ccc1N=Nc1ccc(Br)cc1,> 6.92,> 6.92,
CC(C)C(CCl)NC(=O)c1cccc(C(=O)N[C@H](CCl)C(C)C)n1 (stereo in doubt),> 69.2,> 69.2,
c1cnc(SCc2nc3ccccc3o2)nc1,38,> 200,
CN(C)CCNC(=O)Cn1cc([N+](=O)[O-])c(=O)c2ccccc21,> 200,> 200,
Cn1c(=O)oc2ccc(S(=O)(=O)Nc3ccc(Cl)cc3[N+](=O)[O-])cc21,> 200,28.2,
S=P1(Oc2ccccc2)NNP2(=NP(N3CC3)(N3CC3)=NP(N3CC3)(N3CC3)=N2)NN1 (centres undefined),> 50.1,5.13,
CC(C)c1nc2c(c(=O)o1)CCS2,> 182,> 182,
CNCC(OB(c1ccccc1)c1ccccc1)c1ccccc1 (centres undefined),> 200,60.3,
Cc1[nH]n(-c2nc(O)c(C)c(=O)[nH]2)c(=O)c1CCO,> 200,> 200,
N#Cc1nc(C2=C(Cl)c3ccccc3OC2)[nH]c1C#N,,,inactive
O=S(=O)([O-])c1ccc(N=Cc2ccccc2[O-])cc1.O=S(=O)([O-])c1ccc(N=Cc2ccccc2[O-])cc1.[Co+2],> 407,23.4,

Structure (SMILES),EC50 [µM],IC50 [µM],outcome
CN1CCN(c2ccc3c(c2)NCC(=O)N3)CC1,> 200,117,
CC(=O)OCC1OC(n2c3c(cc(C#N)c2=O)CCCCCC3)C(OC(C)=O)C(OC(C)=O)C1OC(C)=O (centres undefined),> 200,170,
O=C(Cc1nc2ccccc2[nH]1)N/N=C1\SCC(=O)N1c1ccc(Cl)cc1,> 182,> 182,
COc1ccc(/C=C(\C(=O)OCC(C)C)c2ccc(OC)c(OC)c2)cc1OC,> 200,166,
COC(=O)/C=C/c1ccc2c(c1)CC1(C2)Cc2cc3c(cc2C1=O)CCC3 (centres undefined),> 100,> 100,
O=C1CC(O)CC(=O)C1=C(O)CCCCCCCCCCc1ccccc1 (centres undefined),> 19.5,> 19.5,
COC(=O)c1cc(C(=O)OC)c2c3[nH]cnc3ncn2c1=O,> 200,> 200,
Cc1cc(C)c2c(c1)CC(C)(C)C(=O)OC2=O,> 112,> 112,
Nc1ccnc(N)c1N=O,> 200,27.5,
CC(=O)C(N=Nc1nc2ccc(Cl)cc2[nH]1)C(C)=O,> 200,28.8,
N#CC(C#N)=C(N)/C(C#N)=C\c1ccnc2ccccc12,> 26.3,4.07,
O=c1cc(-c2ccccc2)oc2c(O)c(O)cc(O)c12,> 186,> 186,
CN(C)c1ccc(N=C2N=C(Nc3ccccc3)C(=Nc3ccccc3)S2)cc1,> 100,72.4,
Nc1ncnc2c1ncn2[C@H]1[C@H](CO)[C@@H](CO)C1(F)F,> 200,155,
Cc1c(C(=O)Nc2ccc(Cl)cc2)nc(N)nc1-c1cccc(Cl)c1,> 174,> 174,
COc1ccc(/C=C/c2onc3c(=O)n(C)nc(-c4ccccc4)c23)cc1,> 20,> 20,
Cc1cc2c(cc1C)N1C(Cl)=C3CCCCC3=C(C#N)C1N2 (centres undefined),> 20,0.562,
O=C1CC(=O)NC(=NN2C(=O)/C(=C/C(=O)c3ccco3)N=C2c2ccccc2)N1,> 200,32.4,
CCCCCCCCCCCCCCCC(=O)Nc1ccn(C2CSC(COP(=O)(O)OC3CC(n4ccc(NC(=O)CCCCCCCCCCCCCCC)nc4=O)OC3CO)O2)c(=O)n1 (centres undefined),9.55,> 200,
Cc1ccc(S(=O)(=O)N(C=O)N=C2CCN(Cc3ccccc3)CC2)cc1,> 61.7,> 61.7,
CC(NC(=O)C(CO)NC(=O)C(C)NC(=O)C(C)NC(=O)C(CC(N)=O)NC(=O)CN)C(N)=O (centres undefined) (H-GNAASA-NH2; configuration not given here),,,inactive
O=C1CCCC(=O)N1CCc1c[nH]c2ccccc12,,,inactive
N#CC1(C#N)C2CCCCC23OC(=N)C1(C#N)C(c1ccccc1)O3 (centres undefined),> 200,5.62,
CC(=O)N1c2ccccc2C(C)C1c1[nH]c2ccccc2c1C (centres undefined),> 200,30.2,
COc1ccc(-c2onc3ccc(Cl)cc23)cc1,> 20,> 20,
CN(CCN(C)C(=O)CCn1ccc(=O)[nH]c1=O)C(=O)CCn1ccc(=O)[nH]c1=O,> 32.4,> 32.4,
NC(=O)N/N=C(\C(=O)C(=O)Nc1ccc(Cl)c(C(F)(F)F)c1)c1nc2ccc(C(=O)c3ccccc3)cc2[nH]c1=O,> 61.7,> 61.7,

Structure (SMILES),EC50 [µM],IC50 [µM],outcome
O=C(CC(O)(C(F)(F)F)C(F)(F)F)C(c1ccccc1)C(O)(C(F)(F)F)C(F)(F)F (centres undefined),,,inactive
CC(C)CCC[C@@H](C)[C@H]1CC[C@H]2[C@@H]3CC[C@H]4C[C@@H](CC/C=C(/c5ccc(OCc6ccccc6B(O)O)c(C(=O)O)c5)c5cc(Cl)c(OCc6ccccc6B(O)O)c(C(=O)O)c5)CC[C@]4(C)[C@H]3CC[C@]12C,> 200,> 200,
NNC(=O)/C(=C/c1ccc(Cl)cc1Cl)NC(=O)c1ccccc1,> 135,110,
CC1(C)SCc2nc3ccccc3n21,> 200,186,
COc1cc(OC)c(/C=C2\N=C(C)N(Nc3nnc(NN4C(=O)/C(=C/c5c(OC)cc(OC)cc5OC)N=C4C)c4ccccc34)C2=O)c(OC)c1,,,inactive
OC12COc3ccccc3C1Oc1ccccc1C2 (centres undefined),,,inactive
Cc1ccc(S(=O)(=O)N/N=C(/CC(=O)c2c(C)n([O-])c3ccccc3[n+]2=O)C(=O)Nc2ccc(C)c(C)c2)cc1,> 6.46,> 6.46,
NC1CCCCCCC1,> 200,> 200,
CC1(C)N=C(C(N)=O)c2ncn(CCCO)c2N1,> 200,> 200,
Oc1ccccc1C(c1cc2c(cc1O)OCO2)N1CCOCC1 (centres undefined),> 200,11,
COc1ccc(N=Nc2c(C)c(C#N)c(=S)n(C3OC(CO)C(O)C(O)C3O)c2C)cc1 (centres undefined),> 200,27.5,
CC(C)=CCN(N=O)c1ncnc2nc[nH]c12,> 200,> 200,
CCOC(=O)C(C(C)=O)C(CC(=O)OC)NC(=O)OCc1ccccc1 (centres undefined),> 257,> 257,
Cc1cc(=O)oc2c(C)c(OCCCOc3ccc4c(C)cc(=O)oc4c3C)ccc12,> 32.4,> 32.4,
CCCCCC=C(c1cc(Br)c(OC)c(C(=O)OC)c1)c1cc(Br)c(OC)c(C(=O)OC)c1,26.9,87.1,
O=C(Cn1ccnc1[N+](=O)[O-])NCc1ccccc1,,,inactive
O=c1c2ccccc2oc2cc([N+](=O)[O-])cc([N+](=O)[O-])c12,> 5.01,4.17,
N#CCCN(C1=NN(C(=O)CC(=O)Nc2ccc(Cl)cc2)C(c2ccccc2)C1)c1ccc(Cl)cc1 (centres undefined),> 50.1,> 50.1,
COC(=O)/C(=N/NC(C)(C)C)C(C(=O)OC)C(=O)C(=O)Nc1nc2ccc([N+](=O)[O-])cc2s1 (centres undefined),> 53.7,> 53.7,
O=c1[nH]c(=O)n(C2CC(F)C(CO)O2)cc1CO (centres undefined),> 479,186,
O=C(O)c1cc2ccccc2c(Br)c1O.O=[N+]([O-])C1CCC(O)C2[N-]CCCC21.[Cu+],> 200,3.39,
COc1ccc(N=c2ssc(SC)c2-c2ccccc2)cc1,> 200,46.8,
CCC1C(C)c2c([nH]c3ccccc23)C2C(=O)N(c3ccccc3)C(=O)C21 (centres undefined),,,inactive
C[C@@]12c3c4ccc(C=O)c3Oc3ccc(C=O)c(c31)Oc1c(C=O)ccc(c12)O4,> 50.1,> 50.1,
COc1ccc(-c2cc(-c3ccco3)c(C#N)c(=O)n2C2OC(COC(C)=O)C(OC(C)=O)C(OC(C)=O)C2OC(C)=O)cc1 (centres undefined),> 11.5,> 11.5,
